The values that follow come from patent US12404250B2, “PARP inhibitors for treating cancer and asthma” (Oregon Health & Science University, priority 2018, dated 2025).

Common to all, as to type: biochemical
One test concerns the target T1, PARP7 (Homo sapiens, UniProt Q7Z3E1).
T1 sequence (Q7Z3E1 1-657): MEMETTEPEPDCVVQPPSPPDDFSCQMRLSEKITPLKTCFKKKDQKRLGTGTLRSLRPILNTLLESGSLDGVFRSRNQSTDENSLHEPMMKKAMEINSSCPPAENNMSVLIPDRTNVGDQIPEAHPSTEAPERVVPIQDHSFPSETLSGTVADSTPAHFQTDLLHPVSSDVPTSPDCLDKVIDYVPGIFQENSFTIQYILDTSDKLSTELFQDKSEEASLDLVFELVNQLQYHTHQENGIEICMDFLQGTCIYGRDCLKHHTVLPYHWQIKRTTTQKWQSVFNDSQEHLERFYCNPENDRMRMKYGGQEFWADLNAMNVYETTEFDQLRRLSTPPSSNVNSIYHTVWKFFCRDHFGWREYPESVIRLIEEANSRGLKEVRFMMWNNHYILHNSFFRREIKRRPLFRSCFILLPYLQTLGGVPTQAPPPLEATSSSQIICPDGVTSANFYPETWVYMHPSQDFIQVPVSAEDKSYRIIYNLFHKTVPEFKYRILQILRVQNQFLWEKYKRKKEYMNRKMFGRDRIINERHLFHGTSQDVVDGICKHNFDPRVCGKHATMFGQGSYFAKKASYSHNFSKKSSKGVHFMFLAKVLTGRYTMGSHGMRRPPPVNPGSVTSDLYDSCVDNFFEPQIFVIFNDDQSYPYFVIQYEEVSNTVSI
Put plainly: In vitro IC50, PARP7. The following applies: SEM from a minimum of three dose-response experiments.

For the next test, the target named is T2, PARP8 (Homo sapiens, UniProt Q8N3A8).
T2 construct: expressed in transfected cells; host or cells: HEK 293T
T2 sequence (Q8N3A8 1-854): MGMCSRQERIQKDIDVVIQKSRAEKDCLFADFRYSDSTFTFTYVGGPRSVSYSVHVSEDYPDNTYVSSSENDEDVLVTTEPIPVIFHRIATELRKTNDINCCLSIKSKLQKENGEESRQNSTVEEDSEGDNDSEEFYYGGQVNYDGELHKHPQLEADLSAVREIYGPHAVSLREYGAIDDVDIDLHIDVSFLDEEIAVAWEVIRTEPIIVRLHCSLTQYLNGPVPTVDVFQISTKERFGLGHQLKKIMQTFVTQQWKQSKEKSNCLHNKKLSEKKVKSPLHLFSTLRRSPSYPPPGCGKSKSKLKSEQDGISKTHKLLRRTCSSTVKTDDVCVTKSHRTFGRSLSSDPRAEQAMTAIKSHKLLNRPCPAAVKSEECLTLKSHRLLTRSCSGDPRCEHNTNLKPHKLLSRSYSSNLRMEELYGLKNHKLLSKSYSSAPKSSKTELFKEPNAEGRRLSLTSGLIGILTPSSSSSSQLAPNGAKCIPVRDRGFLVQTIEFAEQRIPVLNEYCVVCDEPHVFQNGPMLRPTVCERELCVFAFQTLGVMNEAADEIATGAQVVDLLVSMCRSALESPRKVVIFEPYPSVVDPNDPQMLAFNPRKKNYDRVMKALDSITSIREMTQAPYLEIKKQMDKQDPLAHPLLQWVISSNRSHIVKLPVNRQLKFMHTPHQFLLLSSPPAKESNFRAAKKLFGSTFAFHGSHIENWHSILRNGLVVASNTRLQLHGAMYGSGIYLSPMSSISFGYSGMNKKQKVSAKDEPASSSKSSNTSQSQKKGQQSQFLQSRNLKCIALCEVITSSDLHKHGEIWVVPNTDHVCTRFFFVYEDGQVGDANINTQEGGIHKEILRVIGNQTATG
Put plainly: In vitro IC50, immunoprecipitated GFP-PARP8 auto-MARylation.

In the next test the target is T3, PARP6 (Homo sapiens, UniProt Q2NL67).
T3 construct: expressed in transfected cells; host or cells: HEK 293T
Put plainly: In vitro IC50, immunoprecipitated GFP-PARP6 auto-MARylation.

Another test deals with T4, PARP10cat (Homo sapiens, UniProt Q53GL7).
T4 construct: bcat; cat; PARP11
T4 sequence (Q53GL7 806-1025 limits assumed): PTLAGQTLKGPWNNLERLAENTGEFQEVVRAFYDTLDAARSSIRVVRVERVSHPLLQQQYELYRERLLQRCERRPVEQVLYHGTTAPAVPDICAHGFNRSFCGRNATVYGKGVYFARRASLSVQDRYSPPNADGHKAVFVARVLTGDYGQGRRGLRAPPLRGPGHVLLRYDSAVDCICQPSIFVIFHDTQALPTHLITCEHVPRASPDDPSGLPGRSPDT
Put plainly: In vitro IC50, PARP10cat. Conditions: SEM from a minimum of three dose-response experiments.

A further test deals with T5, PARP11 (Homo sapiens, UniProt Q9NR21).
T5 sequence (Q9NR21 1-338): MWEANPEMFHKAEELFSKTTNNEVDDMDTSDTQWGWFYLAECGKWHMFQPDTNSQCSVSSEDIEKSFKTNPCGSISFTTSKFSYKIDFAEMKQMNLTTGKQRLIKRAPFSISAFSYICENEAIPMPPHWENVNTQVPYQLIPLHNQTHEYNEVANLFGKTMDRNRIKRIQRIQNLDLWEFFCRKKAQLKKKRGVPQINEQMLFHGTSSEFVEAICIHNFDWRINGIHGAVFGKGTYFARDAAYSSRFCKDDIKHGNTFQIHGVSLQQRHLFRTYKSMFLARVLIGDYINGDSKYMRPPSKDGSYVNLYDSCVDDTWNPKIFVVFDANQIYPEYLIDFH
Put plainly: In vitro IC50, PARP11 (plate assay, MARylation of SRPK2 and NXF1). Conditions: SEM from a minimum of three dose-response experiments. The text has this: Curves generated using Prism 7 (Graph Pad); error bars indicate ±SEM from at least two replicates.

A further test concerns the target T6, PARP 3 (Homo sapiens, UniProt Q9Y6F1).
T6 sequence (Q9Y6F1 1-533): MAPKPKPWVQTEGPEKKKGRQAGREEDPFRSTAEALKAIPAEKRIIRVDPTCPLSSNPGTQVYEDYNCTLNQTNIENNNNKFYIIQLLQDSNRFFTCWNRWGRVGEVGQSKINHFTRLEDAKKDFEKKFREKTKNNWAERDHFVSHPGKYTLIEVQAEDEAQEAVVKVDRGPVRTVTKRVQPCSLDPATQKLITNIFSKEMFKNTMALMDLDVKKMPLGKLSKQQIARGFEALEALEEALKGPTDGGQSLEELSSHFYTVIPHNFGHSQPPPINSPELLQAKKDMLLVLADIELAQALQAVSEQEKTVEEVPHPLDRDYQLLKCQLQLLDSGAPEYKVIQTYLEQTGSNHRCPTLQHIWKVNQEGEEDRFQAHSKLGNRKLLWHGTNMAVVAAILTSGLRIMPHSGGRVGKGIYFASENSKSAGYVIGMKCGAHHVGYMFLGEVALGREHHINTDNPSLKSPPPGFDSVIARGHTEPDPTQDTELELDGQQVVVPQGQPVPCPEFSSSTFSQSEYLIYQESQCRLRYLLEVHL
Put plainly: In vitro IC50, PARP3. The following applies: SEM from a minimum of three dose-response experiments.

The next test deals with PARP 2 (Homo sapiens, UniProt Q9UGN5). Put plainly: In vitro IC50, PARP2. The following applies: SEM from a minimum of three dose-response experiments.
Sequence of PARP 2 (Q9UGN5 whole entry): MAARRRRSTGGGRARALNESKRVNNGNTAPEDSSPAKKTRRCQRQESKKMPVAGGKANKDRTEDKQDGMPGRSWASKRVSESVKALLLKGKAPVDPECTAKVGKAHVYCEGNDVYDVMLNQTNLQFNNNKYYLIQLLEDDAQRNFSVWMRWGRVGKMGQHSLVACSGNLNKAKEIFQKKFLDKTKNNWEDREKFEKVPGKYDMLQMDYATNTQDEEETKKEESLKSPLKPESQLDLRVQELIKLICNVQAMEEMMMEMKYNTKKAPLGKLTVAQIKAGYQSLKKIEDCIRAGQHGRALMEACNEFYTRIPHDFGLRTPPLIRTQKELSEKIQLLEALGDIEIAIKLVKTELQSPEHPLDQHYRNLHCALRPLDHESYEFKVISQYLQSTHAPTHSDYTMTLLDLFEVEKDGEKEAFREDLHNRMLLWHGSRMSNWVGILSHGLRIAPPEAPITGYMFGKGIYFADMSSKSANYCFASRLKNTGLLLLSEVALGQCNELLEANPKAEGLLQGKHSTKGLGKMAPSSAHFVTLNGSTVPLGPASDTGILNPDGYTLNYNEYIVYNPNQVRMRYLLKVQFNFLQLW

T3 sequence (Q2NL67 whole entry): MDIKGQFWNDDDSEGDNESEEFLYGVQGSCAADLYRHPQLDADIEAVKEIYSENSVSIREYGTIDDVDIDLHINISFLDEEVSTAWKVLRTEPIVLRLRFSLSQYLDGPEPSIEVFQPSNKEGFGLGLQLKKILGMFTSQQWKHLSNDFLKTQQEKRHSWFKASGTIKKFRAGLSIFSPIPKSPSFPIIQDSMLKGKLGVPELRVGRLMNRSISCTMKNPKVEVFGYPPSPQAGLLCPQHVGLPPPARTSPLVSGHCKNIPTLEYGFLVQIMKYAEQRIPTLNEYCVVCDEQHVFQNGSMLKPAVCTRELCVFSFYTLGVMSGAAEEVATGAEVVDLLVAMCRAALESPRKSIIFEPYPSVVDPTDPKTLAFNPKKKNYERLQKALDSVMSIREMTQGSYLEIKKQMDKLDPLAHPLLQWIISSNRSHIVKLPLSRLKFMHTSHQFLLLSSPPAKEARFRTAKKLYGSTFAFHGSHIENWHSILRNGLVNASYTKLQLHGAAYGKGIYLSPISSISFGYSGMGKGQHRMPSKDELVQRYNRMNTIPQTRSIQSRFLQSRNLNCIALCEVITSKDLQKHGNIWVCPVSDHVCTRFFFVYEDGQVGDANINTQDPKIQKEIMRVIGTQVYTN
Procedure for PARP6: (§1) Auto-MARylation was analyzed by Western blot with an ADP-ribose (ADPr) binding reagent (uncropped blots shown below).
Procedure for PARP8: as §1

`CC#Cc1ccc2c(=O)[nH]c(CSc3ccc(C(=O)O)cc3)nc2c1C` [ITK6, 4-(((8-methyl-4-oxo-7-(prop-1-yn-1-yl)-3,4-dihydroquinazolin-2-yl)methyl)thio) benzoic acid]: the IC50 – broadly, the concentration needed to halve the response being measured – was 24.6 ± 0.5 µM against PARP7; greater than 3 µM against PARP8; greater than 3 µM against PARP6; 0.156 ± 0.018 µM at PARP10cat; 0.099 ± 0.016 µM on PARP11.

For `CC#Cc1ccc2c(=O)[nH]c(CSc3ncccn3)nc2c1C` [ITK7, 8-methyl-7-(prop-1-yn-1-yl)-2-((pyrimidin-2-ylthio)methyl)quinazolin-4(3H)-one], the IC50 against PARP 3 was greater than 30 µM; at PARP7, 2.46 ± 0.5 µM; on PARP 2 it was greater than 30 µM; against PARP8, greater than 3 µM; against PARP6, greater than 3 µM; against PARP10cat, 9.28 ± 1.57 µM. Besides, inhibition against PARP11 was half-maximal at 0.014 ± 0.003 µM (IC50).
